Patent publication US20060030719A1, “Cis-3,5-disubstituted-dihydro-furan-2-ones and the preparation and use thereof” (priority 2004, published 2006)

## C[C@@H]1C[C@H](CC2CCCCC2)C(=O)O1 (relative stereo) [Example 20, cis-3-cyclohexylmethyl-5-methyl-dihydro-furan-2-one]
  melting point: 60 to 62 °C
